Molecular target: T1, human SLC6A19 and TMEM27 (Homo sapiens, UniProt Q695T7)
T1 construct: expressed in transfected cells
T1 sequence (Q695T7 1-634): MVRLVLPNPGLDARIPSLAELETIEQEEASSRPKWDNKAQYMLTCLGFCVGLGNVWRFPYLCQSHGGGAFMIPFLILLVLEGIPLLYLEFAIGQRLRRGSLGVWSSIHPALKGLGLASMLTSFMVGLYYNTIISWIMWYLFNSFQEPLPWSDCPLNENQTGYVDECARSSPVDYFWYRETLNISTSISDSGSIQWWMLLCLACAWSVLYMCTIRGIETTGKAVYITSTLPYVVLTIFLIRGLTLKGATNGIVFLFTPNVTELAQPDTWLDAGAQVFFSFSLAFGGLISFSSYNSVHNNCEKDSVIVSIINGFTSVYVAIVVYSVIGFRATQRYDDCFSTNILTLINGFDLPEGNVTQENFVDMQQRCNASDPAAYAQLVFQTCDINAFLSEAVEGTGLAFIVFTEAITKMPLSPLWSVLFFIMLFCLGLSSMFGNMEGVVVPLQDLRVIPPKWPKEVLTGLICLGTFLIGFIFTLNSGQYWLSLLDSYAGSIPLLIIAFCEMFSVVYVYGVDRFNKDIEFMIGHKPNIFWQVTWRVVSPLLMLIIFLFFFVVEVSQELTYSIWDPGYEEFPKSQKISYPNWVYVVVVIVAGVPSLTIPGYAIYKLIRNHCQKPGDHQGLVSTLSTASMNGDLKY
T1 sequence (Q9HBJ8 15-222 partner): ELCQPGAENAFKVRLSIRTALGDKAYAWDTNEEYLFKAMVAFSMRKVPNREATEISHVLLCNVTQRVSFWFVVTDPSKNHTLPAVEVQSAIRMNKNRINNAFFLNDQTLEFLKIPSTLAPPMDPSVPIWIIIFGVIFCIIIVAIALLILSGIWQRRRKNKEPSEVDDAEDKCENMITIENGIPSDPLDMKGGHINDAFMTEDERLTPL
Test: Radiolabelled (3H) leucine uptake in CHO cells with doxycycline-inducible expression of human SLC6A19 and TMEM27 (Example B-1)
Type: cell-based
Conditions: CHO cells with doxycycline-inducible expression of human SLC6A19 and TMEM27, read-out: SLC6A19_Radioligand Uptake Assay IC50
Method in brief: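 CHO cells were induced with doxycycline for 18 h at 37 °C, washed in HBSS, then exposed to compounds for 1 h: 8-point, 3-fold dilutions in duplicate, 0.5% DMSO final. Uptake measured by scintillation counting after 2 h shaking. Activity normalized with positive control as 0% and DMSO as 100%.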

Going from `O=C(CC12CC(C1)C2)NCc1cc2cc(Cl)c(OCc3cscn3)cc2[nH]1` [Compound 555, 2-(bicyclo[1.1.1]pentan-1-yl)-N-((5-chloro-6-(thiazol-4-ylmethoxy)-1H-indol-2-yl)methyl)acetamide] to `O=C(NCc1cc2cc(Cl)c(OCc3cscn3)cc2[nH]1)C1CCC1` [Compound 490, N-((5-chloro-6-(thiazol-4-ylmethoxy)-1H-indol-2-yl)methyl)cyclobutanecarboxamide], the IC50 falls from 3040 nM to 178 nM (17-fold).

Compared with `O=C(NCc1cc2cc(F)c(OCc3ccon3)cc2[nH]1)N1CCCC1` [Compound 116, N-((5-fluoro-6-(isoxazol-3-ylmethoxy)-1H-indol-2-yl)methyl)pyrrolidine-1-carboxamide], `O=C(NCc1cc2cc(Cl)c(OCc3ccon3)cc2[nH]1)N1CCCCC1` [Compound 85, N-((5-chloro-6-(isoxazol-3-ylmethoxy)-1H-indol-2-yl)methyl)piperidine-1-carboxamide] is 2.6-fold higher in IC50: 157 nM for the first, 402 nM for the second.

`Cc1cc(COc2cc3[nH]c(CNC(=O)[C@@H]4C[C@@H]4F)cc3cc2Cl)on1` [Compound 540, (1S,2S)-N-((5-chloro-6-((3-methylisoxazol-5-yl)methoxy)-1H-indol-2-yl)methyl)-2-fluorocyclopropane-1-carboxamide] and `Cc1cc(COc2cc3[nH]c(CNC(=O)[C@H]4CCO4)cc3cc2Cl)on1` [Compound 317, (R)-N-((5-chloro-6-((3-methylisoxazol-5-yl)methoxy)-1H-indol-2-yl)methyl)oxetane-2-carboxamide] are within 1.5-fold of each other in IC50: 131 nM for the first, 119 nM for the second.

Going from `CC(=O)NCc1cc2ccc(OCc3cc(C)no3)cc2[nH]1` [Compound 349, N-((6-((3-methylisoxazol-5-yl)methoxy)-1H-indol-2-yl)methyl)acetamide] to `COC(=O)NCc1cc2cc(Cl)c(OCc3cc(C)no3)cc2[nH]1` [Compound 625, methyl ((5-chloro-6-((3-methylisoxazol-5-yl)methoxy)-1H-indol-2-yl)methyl)carbamate], the IC50 falls from 2930 nM to 90.2 nM (32-fold). The second is the more potent here.

First: Cc1cc(COc2cc3[nH]c(CNC(=O)C(F)(F)F)cc3cc2Cl)on1 [Compound 662, N-((5-chloro-6-((3-methylisoxazol-5-yl)methoxy)-1H-indol-2-yl)methyl)-2,2,2-trifluoroacetamide]
Second: CNCC(=O)NCc1cc2cc(Cl)c(OCc3cc(C)no3)cc2[nH]1 [Compound 615, N-((5-chloro-6-((3-methylisoxazol-5-yl)methoxy)-1H-indol-2-yl)methyl)-2-(methylamino)acetamide]
The IC50 of the first is 17-fold lower: 123 nM for the first, 2070 nM for the second.

`CC(=O)NCc1cc2c(F)cc(OCc3cscn3)cc2[nH]1` [Compound 525, N-((4-fluoro-6-(thiazol-4-ylmethoxy)-1H-indol-2-yl)methyl)acetamide] and `C[C@@H]1CCN(C(=O)NCc2cc3cc(F)c(OCc4cscn4)cc3[nH]2)C1` [Compound 387, (R)-N-((5-fluoro-6-(thiazol-4-ylmethoxy)-1H-indol-2-yl)methyl)-3-methylpyrrolidine-1-carboxamide] are within 1.5-fold of each other in IC50: 157 nM for the first, 209 nM for the second.

First: Cc1cc(COc2cc3[nH]c(CNC(=O)CC4CCCO4)cc3cc2Cl)on1 (stereo not shown) [Compound 310, N-((5-chloro-6-((3-methylisoxazol-5-yl)methoxy)-1H-indol-2-yl)methyl)-2-(tetrahydrofuran-2-yl)acetamide]
Second: Cc1cc(COc2cc3[nH]c(CNC(=O)[C@H]4COCCO4)cc3cc2Cl)on1 [Compound 304, (R)-N-((5-chloro-6-((3-methylisoxazol-5-yl)methoxy)-1H-indol-2-yl)methyl)-1,4-dioxane-2-carboxamide]
The IC50 of the first is 3.5-fold higher: 2520 nM for the first, 718 nM for the second. The second is the more potent here.

Going from `CC1(C(=O)NCc2[nH]c3cc(OCc4cscn4)ccc3c2C(F)(F)F)CC1` [Compound 640, 1-methyl-N-((6-(thiazol-4-ylmethoxy)-3-(trifluoromethyl)-1H-indol-2-yl)methyl)cyclopropane-1-carboxamide] to `O=C(NCc1cc2cc(Cl)c(OCc3cscn3)cc2[nH]1)C1(C(F)(F)F)CC1` [Compound 144, N-((5-chloro-6-(thiazol-4-ylmethoxy)-1H-indol-2-yl)methyl)-1-(trifluoromethyl)cyclopropane-1-carboxamide], the IC50 falls from 666 nM to 119 nM (5.6-fold). The second is the more potent here.

`CC1(C(=O)NCc2cc3cc(OC(F)(F)F)c(CCc4cscn4)cc3[nH]2)CC1` [Compound 509, 1-methyl-N-((6-(2-(thiazol-4-yl)ethyl)-5-(trifluoromethoxy)-1H-indol-2-yl)methyl)cyclopropane-1-carboxamide] and `CC1(C(=O)NCc2cc3cc(F)c(OCc4cc(C(F)(F)F)on4)cc3[nH]2)CC1` [Compound 72, N-((5-fluoro-6-((5-(trifluoromethyl)isoxazol-3-yl)methoxy)-1H-indol-2-yl)methyl)-1-methylcyclopropane-1-carboxamide] are within 1.5-fold of each other in IC50: 1520 nM for the first, 1240 nM for the second.

Going from `COC(C)COc1cc2[nH]c(CNC(=O)C3(C)CC3)cc2cc1Cl` (stereo not shown) [Compound 454, N-((5-chloro-6-(2-methoxypropoxy)-1H-indol-2-yl)methyl)-1-methylcyclopropane-1-carboxamide] to `Cc1cc(COc2cc3[nH]c(CNC(=O)C4(CO)CC4)cc3cc2Cl)on1` [Compound 250, N-((5-chloro-6-((3-methylisoxazol-5-yl)methoxy)-1H-indol-2-yl)methyl)-1-(hydroxymethyl)cyclopropane-1-carboxamide], the IC50 falls from 787 nM to 383 nM (2.1-fold).

Compared with `O=C(NCc1cc2cc(OC(F)(F)F)c(CCc3ccon3)cc2[nH]1)N1CCCC1` [Compound 598, N-((6-(2-(isoxazol-3-yl)ethyl)-5-(trifluoromethoxy)-1H-indol-2-yl)methyl)pyrrolidine-1-carboxamide], `O=C(NCc1cc2cc(Cl)c(CCc3cscn3)cc2[nH]1)N1CCC1` [Compound 599, N-((5-chloro-6-(2-(thiazol-4-yl)ethyl)-1H-indol-2-yl)methyl)azetidine-1-carboxamide] is 2.2-fold lower in IC50: 358 nM for the first, 163 nM for the second. The second is the more potent here.

`CNC(=O)NCc1cc2cc(F)c(OCc3cc(C)on3)cc2[nH]1` [Compound 212, 1-((5-fluoro-6-((5-methylisoxazol-3-yl)methoxy)-1H-indol-2-yl)methyl)-3-methylurea] and `Cc1cc(COc2cc3[nH]c(CNC(=O)N4CC(F)(F)C4)cc3cc2Cl)on1` [Compound 370, N-((5-chloro-6-((3-methylisoxazol-5-yl)methoxy)-1H-indol-2-yl)methyl)-3,3-difluoroazetidine-1-carboxamide] are within 1.5-fold of each other in IC50: 429 nM for the first, 486 nM for the second.

Work on `COCCNC(=O)NCc1cc2cc(Cl)c(OCc3cscn3)cc2[nH]1` [Compound 380, 1-((5-chloro-6-(thiazol-4-ylmethoxy)-1H-indol-2-yl)methyl)-3-(2-methoxyethyl)urea] yielded an IC50 of 1130 nM.
